# From ChEMBL document CHEMBL1140602, “A simple, yet highly accurate, QSAR model captures the complement inhibitory activity of compstatin” (Bioorg Med Chem, 2007)
# Assay: Inhibition of C3b activation relative to compstatin
row,Compound,logIC50
1,CC[C@H](C)[C@H](NC(C)=O)C(=O)N[C@H]1CSSC[C@@H](C(=O)N[C@H](C(=O)O)[C@@H](C)O)NC(=O)[C@H](CCCNC(=N)N)NC(=O)[C@H](Cc2cnc[nH]2)NC(=O)[C@H](C)NC(=O)CNC(=O)[C@H](Cc2c[nH]c3ccccc23)NC(=O)[C@H](CC(=O)O)NC(=O)[C@H](CCC(N)=O)NC(=O)[C@@H](Cc2csc3ccccc23)NC(=O)[C@H](C(C)C)NC1=O,1.83
2,CC[C@H](C)[C@H](NC(C)=O)C(=O)N[C@H]1CSSC[C@@H](C(=O)N[C@H](C(N)=O)[C@@H](C)O)NC(=O)[C@H](CCCNC(=N)N)NC(=O)[C@H](Cc2cnc[nH]2)NC(=O)[C@H](C)NC(=O)CNC(=O)[C@H](Cc2c[nH]c3cc(F)ccc23)NC(=O)[C@H](CC(=O)O)NC(=O)[C@H](CCC(N)=O)NC(=O)[C@H](Cc2c[nH]c3cc(F)ccc23)NC(=O)[C@H](C(C)C)NC1=O,2.1
3,CC[C@H](C)[C@H](NC(C)=O)C(=O)N[C@H]1CSSC[C@@H](C(=O)N[C@H](C(N)=O)[C@@H](C)O)NC(=O)[C@H](CCCNC(=N)N)NC(=O)[C@H](Cc2cnc[nH]2)NC(=O)[C@H](C)NC(=O)CNC(=O)[C@H](Cc2c[nH]c3ccc(F)cc23)NC(=O)[C@H](CC(=O)O)NC(=O)[C@H](CCC(N)=O)NC(=O)[C@H](Cc2c[nH]c3ccccc23)NC(=O)[C@H](C(C)C)NC1=O,2.08
4,CC[C@H](C)[C@H](NC(C)=O)C(=O)N[C@H]1CSSC[C@@H](C(=O)N[C@H](C(N)=O)[C@@H](C)O)NC(=O)[C@H](CCCNC(=N)N)NC(=O)[C@H](Cc2cnc[nH]2)NC(=O)[C@H](C)NC(=O)CNC(=O)[C@H](Cc2c[nH]c3ccc(F)cc23)NC(=O)[C@H](CC(=O)O)NC(=O)[C@H](CCC(N)=O)NC(=O)[C@H](Cc2cn(C)c3ccccc23)NC(=O)[C@H](C(C)C)NC1=O,2.42
5,CC[C@H](C)[C@H](NC(C)=O)C(=O)N[C@H]1CSSC[C@@H](C(=O)N[C@H](C(N)=O)[C@@H](C)O)NC(=O)[C@H](CCCNC(=N)N)NC(=O)[C@H](Cc2cnc[nH]2)NC(=O)[C@H](C)NC(=O)CNC(=O)[C@H](Cc2c[nH]c3ccc(O)cc23)NC(=O)[C@H](CC(=O)O)NC(=O)[C@H](CCC(N)=O)NC(=O)[C@H](Cc2c[nH]c3ccc(O)cc23)NC(=O)[C@H](C(C)C)NC1=O,0.211
6,CC[C@H](C)[C@H](NC(C)=O)C(=O)N[C@H]1CSSC[C@@H](C(=O)N[C@H](C(N)=O)[C@@H](C)O)NC(=O)[C@H](CCCNC(=N)N)NC(=O)[C@H](Cc2cnc[nH]2)NC(=O)[C@H](C)NC(=O)CNC(=O)[C@H](Cc2c[nH]c3ccccc23)NC(=O)[C@H](CC(=O)O)NC(=O)[C@H](CCC(N)=O)NC(=O)[C@H](C2Cc3ccccc3C2)NC(=O)[C@H](C(C)C)NC1=O,1.58
7,CC[C@H](C)[C@H](NC(C)=O)C(=O)N[C@H]1CSSC[C@@H](C(=O)N[C@H](C(N)=O)[C@@H](C)O)NC(=O)[C@H](CCCNC(=N)N)NC(=O)[C@H](Cc2cnc[nH]2)NC(=O)[C@H](C)NC(=O)CNC(=O)[C@H](Cc2c[nH]c3ccccc23)NC(=O)[C@H](CC(=O)O)NC(=O)[C@H](CCC(N)=O)NC(=O)[C@H](CC2CCCCC2)NC(=O)[C@H](C(C)C)NC1=O,0.056
8,CC[C@H](C)[C@H](NC(C)=O)C(=O)N[C@H]1CSSC[C@@H](C(=O)N[C@H](C(N)=O)[C@@H](C)O)NC(=O)[C@H](CCCNC(=N)N)NC(=O)[C@H](Cc2cnc[nH]2)NC(=O)[C@H](C)NC(=O)CNC(=O)[C@H](Cc2c[nH]c3ccccc23)NC(=O)[C@H](CC(=O)O)NC(=O)[C@H](CCC(N)=O)NC(=O)[C@H](Cc2c[nH]c3ccc(C)cc23)NC(=O)[C@H](C(C)C)NC1=O,1.79
9,CC[C@H](C)[C@H](NC(C)=O)C(=O)N[C@H]1CSSC[C@@H](C(=O)N[C@H](C(N)=O)[C@@H](C)O)NC(=O)[C@H](CCCNC(=N)N)NC(=O)[C@H](Cc2cnc[nH]2)NC(=O)[C@H](C)NC(=O)CNC(=O)[C@H](Cc2c[nH]c3ccccc23)NC(=O)[C@H](CC(=O)O)NC(=O)[C@H](CCC(N)=O)NC(=O)[C@H](Cc2c[nH]c3ccccc23)NC(=O)[C@H](C(C)C)NC1=O,1.65
10,CC[C@H](C)[C@H](NC(C)=O)C(=O)N[C@H]1CSSC[C@@H](C(=O)N[C@H](C(N)=O)[C@@H](C)O)NC(=O)[C@H](CCCNC(=N)N)NC(=O)[C@H](Cc2cnc[nH]2)NC(=O)[C@H](C)NC(=O)CNC(=O)[C@H](Cc2c[nH]c3ccccc23)NC(=O)[C@H](CC(=O)O)NC(=O)[C@H](CCC(N)=O)NC(=O)[C@H](Cc2ccc(C(=O)c3ccccc3)cc2)NC(=O)[C@H](C(C)C)NC1=O,1.95
11,CC[C@H](C)[C@H](NC(C)=O)C(=O)N[C@H]1CSSC[C@@H](C(=O)N[C@H](C(N)=O)[C@@H](C)O)NC(=O)[C@H](CCCNC(=N)N)NC(=O)[C@H](Cc2cnc[nH]2)NC(=O)[C@H](C)NC(=O)CNC(=O)[C@H](Cc2c[nH]c3ccccc23)NC(=O)[C@H](CC(=O)O)NC(=O)[C@H](CCC(N)=O)NC(=O)[C@H](Cc2ccc(O)cc2)NC(=O)[C@H](C(C)C)NC1=O,1.17
12,CC[C@H](C)[C@H](NC(C)=O)C(=O)N[C@H]1CSSC[C@@H](C(=O)N[C@H](C(N)=O)[C@@H](C)O)NC(=O)[C@H](CCCNC(=N)N)NC(=O)[C@H](Cc2cnc[nH]2)NC(=O)[C@H](C)NC(=O)CNC(=O)[C@H](Cc2c[nH]c3ccccc23)NC(=O)[C@H](CC(=O)O)NC(=O)[C@H](CCC(N)=O)NC(=O)[C@H](Cc2cccc3ccccc23)NC(=O)[C@H](C(C)C)NC1=O,1.99
13,CC[C@H](C)[C@H](NC(C)=O)C(=O)N[C@H]1CSSC[C@@H](C(=O)N[C@H](C(N)=O)[C@@H](C)O)NC(=O)[C@H](CCCNC(=N)N)NC(=O)[C@H](Cc2cnc[nH]2)NC(=O)[C@H](C)NC(=O)CNC(=O)[C@H](Cc2c[nH]c3ccccc23)NC(=O)[C@H](CC(=O)O)NC(=O)[C@H](CCC(N)=O)NC(=O)[C@H](Cc2cn(C)c3ccccc23)NC(=O)[C@H](C(C)C)NC1=O,2.42
14,CC[C@H](C)[C@H](NC(C)=O)C(=O)N[C@H]1CSSC[C@@H](C(=O)N[C@H](C(N)=O)[C@@H](C)O)NC(=O)[C@H](CCCNC(=N)N)NC(=O)[C@H](Cc2cnc[nH]2)NC(=O)[C@H](C)NC(=O)CNC(=O)[C@H](Cc2c[nH]c3ccccc23)NC(=O)[C@H](CC(=O)O)NC(=O)[C@H](CCC(N)=O)NC(=O)[C@H](Cc2csc3ccccc23)NC(=O)[C@H](C(C)C)NC1=O,1.83
15,CC[C@H](C)[C@H](NC(C)=O)C(=O)N[C@H]1CSSC[C@@H](C(=O)N[C@H](C(N)=O)[C@@H](C)O)NC(=O)[C@H](CCCNC(=N)N)NC(=O)[C@H](Cc2cnc[nH]2)NC(=O)[C@H](C)NC(=O)CNC(=O)[C@H](Cc2c[nH]c3ncccc23)NC(=O)[C@H](CC(=O)O)NC(=O)[C@H](CCC(N)=O)NC(=O)[C@H](Cc2c[nH]c3ncccc23)NC(=O)[C@H](C(C)C)NC1=O,-0.358
16,CC[C@H](C)[C@H](NC(C)=O)C(=O)N[C@H]1CSSC[C@@H](C(=O)N[C@H](C(N)=O)[C@H](C)O)NC(=O)[C@H](CCCNC(=N)N)NC(=O)[C@H](Cc2cnc[nH]2)NC(=O)[C@H](C)NC(=O)CNC(=O)[C@H](Cc2c[nH]c3ccccc23)NC(=O)[C@H](CC(=O)O)NC(=O)[C@H](CCC(N)=O)NC(=O)[C@H](Cc2c[nH]c3ccc(F)cc23)NC(=O)[C@H](C(C)C)NC1=O,1.49
17,CC[C@H](C)[C@H](NC(C)=O)C(=O)N[C@H]1CSSC[C@@H](C(=O)N[C@H](C(N)=O)[C@H](C)O)NC(=O)[C@H](CCCNC(=N)N)NC(=O)[C@H](Cc2cnc[nH]2)NC(=O)[C@H](Cc2cnc[nH]2)NC(=O)CNC(=O)[C@H](Cc2c[nH]c3ccccc23)NC(=O)[C@H](CC(=O)O)NC(=O)[C@H](CCC(N)=O)NC(=O)[C@H](Cc2c[nH]c3ccccc23)NC(=O)[C@H](C(C)C)NC1=O,1.39
